Results on 7 molecules are retold here after patent US4962111A (priority 1989, dated 1990).

Converted amounts (≈) assume the structure as drawn. Like-named read-outs stand apart in the source and are kept apart here. Bounds are passed on as bounds.

In data set [1] the test system is BCG (Bacillus Calmette-Guerin, an attenuated Mycobacterium bovis). Briefly: microbe, parasite or virus in culture. In kind it is cell-based. As to conditions: Mycobacterium tuberculosis variant bovis BCG, pH 5.8, pH 5.8.
Data set [2] has as its system Mycobacterium tuberculosis. The experiment in a line: microbe, parasite or virus in culture. In kind it is cell-based. As to conditions: 99% (2 log) inhibition.
Data set [3] has as its system Mycobacterium kansasii. The experiment in a line: microbe, parasite or virus in culture. Format: cell-based. As to conditions: 99% (2 log) inhibition.
Data set [4] deals with Mycobacterium tuberculosis H37RV. The settings on record: cited from earlier work.
Data set [5] has as its system M. bovis. As to conditions: cited from earlier work.
For data set [6], the system named is other mycobacteria. As to conditions: background statement; cited from earlier work.
The conditions of data set [7]: background statement; cited from earlier work.
Data set [8] relates to Mycobacterium tuberculosis. The settings on record: background statement; cited from earlier work.
For data set [9], the system named is tuberculosis. The settings on record: applied subcutaneously; cited from earlier work.
[10] abbreviates: Mycobacterium tuberculosis, pH 5.8, M. tb. BUR, read-out: MIC.
[11] abbreviates: Mycobacterium tuberculosis, pH 5.8, M. tb. CES, read-out: MIC.
The mark [12] stands for this setting: Mycobacterium tuberculosis, pH 5.8, M. tb. DOL, read-out: MIC.
Where [13] appears, read: Mycobacterium tuberculosis, pH 5.8, M. tb. DOU, read-out: MIC.
The mark [14] stands for this setting: Mycobacterium tuberculosis, pH 5.8, M. tb. DUB, read-out: MIC.
Setting [15] is: Mycobacterium tuberculosis, pH 5.8, M. tb. GLA, read-out: MIC.
Setting [16] is: Mycobacterium tuberculosis, pH 5.8, M. tb. ING, read-out: MIC.
[17] abbreviates: Mycobacterium tuberculosis, pH 5.8, M. tb. LFL, read-out: MIC.
Setting [18] is: Mycobacterium tuberculosis, pH 5.8, M. tb. MCQ, read-out: MIC.
Setting [19] is: Mycobacterium tuberculosis, pH 5.8, M. tb. SMA, read-out: MIC.
The mark [20] stands for this setting: Mycobacterium tuberculosis, pH 5.8, M. tb. WOO, read-out: MIC.
Setting [21] is: Mycobacterium tuberculosis, pH 5.8, M. tb. BAK, read-out: MIC.

`C=CCOC(=O)c1cnccn1` [Allyl Pyrazinoate]: the MIC in [1] is 100 µg/mL (≈ 609 µM); in data set [2] (M. tb. BAK, pH 5.8), 3.12 µg/mL (≈ 19 µM); in [2] (setting [10]) it was 6.25 µg/mL (≈ 38.1 µM); in data set [2] (setting [11]) it was ≤ 3.12 µg/mL; in [2] (setting [12]), ≤ 3.12 µg/mL; in data set [2] (setting [13]), 3.12 µg/mL (≈ 19 µM). Further, the MIC in data set [2] (setting [14]) was 6.25 µg/mL (≈ 38.1 µM); in [2] (setting [15]), 6.25 µg/mL (≈ 38.1 µM); in data set [2] (setting [16]), 3.12 µg/mL (≈ 19 µM); in [2] (setting [17]) it was 3.12 µg/mL (≈ 19 µM); in [2] (setting [18]) it was ≤ 3.12 µg/mL; in [2] (setting [19]) it was 3.12 µg/mL (≈ 19 µM). In addition, the MIC in data set [2] (setting [20]) was 6.25 µg/mL (≈ 38.1 µM); in [3] (pH 5.8, M. kans. SCH), 6.25 µg/mL (≈ 38.1 µM); in data set [3] (pH 5.8, M. kans. SWK), 6.25 µg/mL (≈ 38.1 µM).

In the case of `CN(C)CCOC(=O)c1cnccn1` [N,N-dimethyl-2-aminoethyl pyrazinoate], in data set [4], the “in vitro activity against Mycobacterium tuberculosis H37RV” value was “active”.

Consider `CCCOC(=O)c1cnccn1` [n-Propyl Pyrazinoate], for which the MIC in data set [1] was > 200 µg/mL; in data set [2] (setting [21]) it was ≤ 3.12 µg/mL; in [2] (setting [10]), ≤ 3.12 µg/mL; in data set [2] (setting [11]), ≤ 3.12 µg/mL; in [2] (setting [12]), ≤ 3.12 µg/mL; in data set [2] (setting [13]), ≤ 3.12 µg/mL. Further, the MIC in data set [2] (setting [14]) is ≤ 3.12 µg/mL; in data set [2] (setting [15]), 6.25 µg/mL (≈ 37.6 µM); in data set [2] (setting [16]) it was ≤ 3.12 µg/mL; in [2] (setting [17]), 6.25 µg/mL (≈ 37.6 µM); in data set [2] (setting [18]) it was ≤ 3.12 µg/mL; in data set [2] (setting [19]), ≤ 3.12 µg/mL. Further, the MIC in data set [3] (pH 5.8, M. kans. SCH) was 12.5 µg/mL (≈ 75.2 µM); in [3] (pH 5.8, M. kans. SWK), 6.25 µg/mL (≈ 37.6 µM).

With `Cc1ccc(OC(=O)c2cnccn2)cc1` [p-Tolyl Pyrazinoate], the MIC in data set [1] came to 25 µg/mL (≈ 117 µM); in data set [2] (M. tb. DOU, pH 5.8), 25 µg/mL (≈ 117 µM); in data set [2] (setting [21]), 12.5 µg/mL (≈ 58.4 µM); in [2] (setting [10]), 12.5 µg/mL (≈ 58.4 µM); in data set [2] (setting [11]), 12.5 µg/mL (≈ 58.4 µM); in [2] (setting [12]), 6.25 µg/mL (≈ 29.2 µM). For the same molecule, the MIC in data set [2] (setting [14]) worked out at 25 µg/mL (≈ 117 µM); in data set [2] (setting [15]) it was 6.25 µg/mL (≈ 29.2 µM); in [2] (setting [16]), 25 µg/mL (≈ 117 µM); in data set [2] (setting [17]) it was 12.5 µg/mL (≈ 58.4 µM); in data set [2] (setting [18]) it was 6.25 µg/mL (≈ 29.2 µM); in data set [2] (setting [19]), 25 µg/mL (≈ 117 µM). Further, the MIC in [2] (setting [20]) stood at 25 µg/mL (≈ 117 µM); in data set [3] (pH 5.8, M. kans. SCH), 12.5 µg/mL (≈ 58.4 µM); in data set [3] (pH 5.8, M. kans. SWK) it was 12.5 µg/mL (≈ 58.4 µM).

Turning to `NC(=O)c1cnccn1` [pyrazinamide], the MIC in data set [1] is > 200 µg/mL. In addition, the “activity against M. bovis” value in data set [5] is on record as “not active”. Further, the “activity against other mycobacteria” value in [6] is on record as “not active”. Further, in data set [7], the hepatotoxicity result was “hepatotoxicity”. For the same molecule, the “activity against M. tuberculosis” value in [8] is “only active against Mycobacterium (M.) tuberculosis”.

On to `O=C(OCC(F)(F)F)c1cnccn1` [β, β, β-Trifluoroethyl Pyrazinoate], for which the MIC in [1] was determined as 200 µg/mL (≈ 970 µM); in data set [2] (setting [21]) it was 25 µg/mL (≈ 121 µM); in data set [2] (setting [10]), 25 µg/mL (≈ 121 µM); in data set [2] (setting [11]), 12.5 µg/mL (≈ 60.6 µM); in data set [2] (setting [12]), 25 µg/mL (≈ 121 µM); in data set [2] (setting [13]) it was 100 µg/mL (≈ 485 µM). Besides, the MIC in data set [2] (setting [14]) was determined as 25 µg/mL (≈ 121 µM); in data set [2] (setting [15]), 12.5 µg/mL (≈ 60.6 µM); in data set [2] (setting [16]), 25 µg/mL (≈ 121 µM); in [2] (setting [17]), 50 µg/mL (≈ 243 µM); in [2] (setting [18]) it was 25 µg/mL (≈ 121 µM); in [2] (setting [19]) it was 25 µg/mL (≈ 121 µM). Also, the MIC in [2] (setting [20]) came to 25 µg/mL (≈ 121 µM); in data set [3] (pH 5.8, M. kans. SCH), 100 µg/mL (≈ 485 µM); in [3] (pH 5.8, M. kans. SWK) it was 200 µg/mL (≈ 970 µM).

Isopropyl thiopyrazinoate: in [9], the “activity in a standardized mouse test” value is recorded as “exhibited activity”.
